In patent US8026217B2, “Compositions and methods for treating neural anoxia and spreading depression” (Florida Atlantic University, priority 2007, dated 2011):
“Also recorded” adds a separate entry of the source.

Columns and labels:
[1] = tested on: metathoracic ganglion of the locust; experiment: SD-like events evoked by high-potassium (KCl 150 mM) injection into the locust metathoracic ganglion; format: in vivo, Locusta migratoria
Text: CSD is increasingly accepted as a primary causative agent for migraine, particularly migraine with aura. The cellular mechanisms underlying stroke, seizures and migraine are not exclusive to mammals. Using the locust (Locusta migratoria), a proven model for examining the effects of heat stress on CNS activity, a rapid rise in extracellular potassium ([K^+]o) during anoxia/hypoxia, extreme heat, and ouabain exposure was monitored. This phenomenon has all the characteristics of SD in the neocortex of mammals. Since the physiological mechanisms observed in locust SD-like events are similar to that of mammals, findings in this insect model are predictably transferable to mammals, including humans. In the locust, model SD-like events were triggered in the CNS by injecting small volumes of saline containing high levels of potassium ions (KCl at 150 mM instead of the nominal resting level of 10 mM) into the metathoracic ganglion. Potassium-sensitive microelectrodes were used to measure SD generated by KCl injections, while manipulating the PKG pathway.
This tissue response is characterised by a transient surge and subsequent clearance of potassium ions in the extracellular space ([K^+]o). During SD-like events ventilatory motor activity ceases. This was monitored using an electromyographic electrode positioned on an abdominal muscle used for ventilation (Ventilatory EMG). Upon restoration of the potassium ion gradient the neural activity recovered and preparations began to ventilate again.
The first injection was used as a control. Following the first injection, animals were allowed 10 minutes of perfusion with standard locust saline before treatment with bath applications of selected drugs (i.e. KT5823, T-0156). All drugs were dissolved in a minimum amount of DMSO before further dilution with standard locust saline to a concentration of 10^−5M and were superfused over the metathoracic ganglion for 10 minutes before the second injection. A total of 20 minutes elapsed between the first and second injection in all experiments. As shown in Figure (Bi), duration at half the maximum amplitude was used to characterize the severity of SD-like events. A significant increase was observed following the second injection when compared to the first in control animals. […] Heat shock (HS) preconditioning reduced SD duration evoked by the first and second injections. […] Numbers in the histogram bars indicate number of preparations tested. Asterisks indicate statistically significant differences between the first and second injection ([…]).
Motor pattern activity was not measured for T-0156/Cantharidin treatments. […] Figure (Cii) illustrates the drug effects by showing the percentage difference in rhythm recovery time (second injection relative to first injection).
Single SD events were evoked by injection of saline (50 nL) containing elevated potassium chloride (150 mM vs. 10 mM) directly into the metathoracic ganglion. […] During SD, ventilatory motor activity monitored electromyographically (EMG) ceased and recovered upon restoration of the potassium ion gradient. The duration of the [K^+]o wave at half its maximal amplitude and the time from failure of motor patterning to the recovery of a ventilatory rhythm were measured. […] Numbers in brackets represent sample size.
As in Example 3, SD events were evoked by injection of saline (50 nL) containing elevated potassium chloride (150 mM vs. 10 mM) directly into the metathoracic ganglion of locust preparations.

[2] = tested on: PKG; experiment: PKG enzyme activity assay on heads of treated flies; format: biochemical, Drosophila melanogaster; conditions: heads of sitter flies treated in vivo with volatilized agent, versus sham control
Experimental: PKG enzyme activity assays: PKG enzyme activity assays were conducted according to the procedure outlined in Kaun et al. (J Exp Biol. 210(Pt 20):3547-3558, 2007). Adult Drosophila were decapitated and the heads were homogenized in 25 mM 1-1 Tris (pH 7.4), 1 mM 1-1 EDTA, 2 mM 1-1 EGTA, 5 mM 1-1 β-mercaptoethanol, 0.05% Triton X-100 and protease inhibitor solution (Roche Diagnostics). Following microcentrifugation for 5 min, the supernatant was removed and those supernatants containing equal amounts of total protein were examined for PKG enzyme activity. The reaction mixture contained the following substances: 40 mM 1-1 Tris-HCl (pH 7.4), 20 mM 1-1 magnesium acetate, 0.2 mM 1-1 [γ^32P]ATP (500-1000 c.p.m. pmol−1), […] heptapeptide (RKRSRAE), (SEQ ID NO:6), (3 mM 1-1 cGMP and a highly specific inhibitor of cAMP-dependent protein kinase. The next step of the procedure involved incubating the reaction mixtures at a temperature of 30° C. for 10 min, followed by ending the reaction by spotting 70 μl of the reaction mixture onto Whatman P-81 filters. To remove any unreacted [γ^32P]ATP, these spots were then soaked with 75 mM 1-1 H3PO4 for 5 min and washed three times with 75 mM 1-1 H3PO4. Before quantifying enzyme activity, filters were rinsed with 100% ethanol and air dried. To calculate PKG enzyme activity, counts were taken in a Wallac 1409 Liquid Scintillation Counter using universal scintillation cocktail (ICN). PKG activity was presented in the figures as pmol of ^32P incorporated into the substrate min−1 mg−1 protein.

[3] = tested on: zebrafish; experiment: Zebrafish behaviour during acute anoxia; format: in vivo; conditions: whole zebrafish in anoxic water post-treatment; expected
Text: Vertebrate (zebrafish) behaviour is examined during acute anoxia. Whole zebrafish are exposed to anoxic water post-treatment with a PDE5 inhibitor, 8-bromo-GMP, KT5823, and Cantharidin. The time until the animal knocks out during anoxia is monitored.

Compound | recovery time of ventilatory rhythm, second event versus first ([1]; Example 3, drug applied for 10 minutes prior to second injection, FIG. 3D) | head PKG enzyme activity ([2]; listed as 8-Bromo cGMP) | head PKG enzyme activity ([2]; listed as 8-bromo cGMP) | time until the animal knocks out during anoxia [3] | length of time to recover ventilatory motor pattern activity after SD ([1]; Example 1, bath application 10^-5 M for 10 minutes before second KCl injection) | head PKG enzyme activity [2]
Nc1nc2c(nc(Br)n2[C@@H]2O[C@@H]3COP(=O)(O)O[C@H]3[C@H]2O)c(=O)[nH]1 [8-Br-cGMP] | The recovery time was increased | demonstrated significant effects compared to that of the sham control | induced an increase in head PKG activity levels; also recorded: increasing head PKG activity levels significantly beyond rover levels | increased sensitivity to anoxia causing early failure of behaviour (neural function) | – | –
COC(=O)[C@@]1(OC)C[C@H]2O[C@]1(C)n1c3ccccc3c3c4c(c5c6ccccc6n2c5c31)C(=O)N(C)C4 [KT5823, (9S, 10R, 12R)-2,3,9,10,11,12-Hexahydro-10-methoxy-2-9-dimethyl-1-oxo-9,12-epoxy-1H-diindolo-[1,2,3-fg:3′,2′,1′-k1]pyrrolo[3,4-i][1,6]benzodiazocine-10-carboxylic acid methyl ester] | – | – | – | neuroprotection and prolonged behaviour when subject to anoxia | untreated preparations and those treated with T-0156 took significantly longer to recover | significantly reducing PKG activity; also recorded: demonstrated significant effects compared to that of the sham control
